{"source": "patent US20030199098A1", "about": "“Advanced tool for the quantification uniformity within biological processes and conversions” (priority 2000, published 2003)", "key": {"[1]": {"conditions": "humans, routine clinical experiments", "quoted_text": "This tool is applicable no matter which technique or equipment is used to obtain the initial readings."}, "clinical": {"assay": "clinical", "conditions": "male, human, in vivo", "source_text": "FIG. 3 ethanol concurrency test (simultaneously performed on the same human subject during a single experimental session) in a graphical representation\nThe following TABLE 1 of results describes the FIG. 3 curves:\nThe INTOXIMETER EC/IR 3000, which was used for the data presented in the TABLE 1, was made by Intoximeter, Inc. of St. Louis, Mo. The transcutaneous ethanol sensors (TES #33, #39) were made by Giner Inc. of Waltham, Mass."}}, "data": [{"smiles": "CCO", "note": "[ethanol]", "values": [{"measurement": "Index-K efficiency corridor for alcohol catabolism", "setting": "[1]", "result": "up to 3.4"}, {"measurement": "half-life", "setting": "clinical", "result": 1.48, "unit": "h"}]}]}
